Measured values as given in patent US20260153494A1 (AGRICUL TURAL UNIVERSITY OF ATHENS, priority 2023, published 2026).
Substitutions are numbered along the chain they refer to.

How the values were obtained:
[1] = test system: Immobilized FGGsh155:CB[8] hexamer (GSTF mutant sh155, FGG-tagged, SEQ ID NO: 2, with cucurbit[8]uril 1:1, on glutaraldehyde-crosslinked chitosan); format: biochemical
Method: Initially, 2%, 3% and 4% (w/v) medium molecular weight chitosan (molecular weight of 190 to 310 kDa) was dissolved by continuous stirring in 2% (v/v) acetic acid. The formed chitosan gels were stored at 4° C. until the following day (12 to 24 hours) in order to remove any trapped air. For the immobilisation, 180 mg of chitosan gel were deposited by a syringe at the bottom of a cuvette with 4 mL capacity. Then 50 μL of different concentrations of GA solution [0.4%, 0.5%, 0.6%, 0.7%, and 1% (v/v)] were added and the mixture was lightly stirred with a pipette tip. The carrier mixture was left for an hour so that the reaction of GA binding to the amino groups of the carrier was accomplished. GA was diluted in 20 mM KH2PO4, PH 7.0. Afterwards, the carrier was washed thrice with 2 mL 20 mM KH2PO4, PH 7, in order to remove any unbound GA molecules. The immobilization of FGGsh155:CB[8] was performed five days after the addition of the CB[8] macrocyclic agent at stoichiometry of 1:1, for uniformity of the experiments. Thus, 600 μL of the enzyme solution with 0.7-0.8 mg/mL concentration were added to the activated chitosan medium. The enzyme was incubated with the carrier at 25° C. overnight with stirring at 50-80 rpm. The following day, the volume of the enzyme solution that wasn't absorbed by the carrier was removed and the carrier was incubated with 600 μL of 2 mg/mL NaBH4 solution for 30 min. This step was conducted in order to stabilize the Schiff's bases that form due to the reaction of GA with the enzyme amino groups (Barbosa et al., 2014). Finally, three washes were performed with 20 mM KH2PO4, PH 7, for the removal of any unbound enzyme. Protein binding efficiency to the carrier (%) and retention of enzyme activity (%) were defined as: […]
Determination of the enzyme activity for the immobilised enzyme complex FGGsh155:CB[8] was performed using the CDNB/GSH substrate system with 20 mM KH2PO4, PH 7, as a reaction solution at 37° C., as has been previously described (Georgakis et al., 2020a; Axarli et al., 2017; Cho et al., 2005). The rate assay was recorded for 300 s at 340 nm.
Kinetic analysis for GSH was performed using standard CDNB concentration (1 mM) and varying GSH concentrations. Correspondingly, standard concentration of GSH substrate (2.5 mM) and varying concentrations of CDNB were utilised in the kinetic analysis for CDNB.
The kinetic parameters of the immobilized FGGsh155:CB[8] were calculated using the CDNB/GSH substrate system in 20 mM KH2PO4, PH 7.0, at 37° C. (FIG. 20) depicts the dependence of the enzyme's reaction rate on the substrate concentration. […] Respectively the kinetic analysis for GSH was carried with standard CDNB concentration (1 mM) and different GSH concentrations. […] The reduction in kcat is usually expected after immobilization (Neira & Herr, 2017).

[2] = test system: FGGsh155:CB[8] hexamer (FGG-tagged phi class glutathione S-transferase GSTF mutant sh155, SEQ ID NO: 2, with cucurbit[8]uril 1:1); format: biochemical
Method: (§1) GST activity assays were carried by using the 1-chloro-2,4-dinitrobenzene (CDNB)/glutathione (GSH) substrate system as described previously (Axarli et al., 2017; Georgakis et al., 2020). Determination of enzyme activity was conducted using 1 mM CDNB and 2.5 mM GSH final concentration in 0.1 M KH2PO4, PH 6.5 and 37° C. Kinetic analysis of the potential supramolecular protein complexes was performed as previously described (Axarli et al., 2016, Georgakis et al., 2020) five days after addition of CB[8] to the enzyme solution in 1:1 stoichiometry. Protein precipitates were removed by centrifugation at 10,000 rpm for 10 min prior to the analysis. The steady state data were processed using GraphPad Prism version 7 (GraphPad Prism Software, Inc.). Turnover numbers were evaluated for one active site per subunit of enzyme. Specific activity (SA) was estimated in micromoles per minute per milligram of protein (μmol min-1 mg-1). Determination of protein concentration was carried using the Bradford assay with bovine serum albumin as standard (Bradford, 1976).
(§2) The kinetic parameters of FGGsh101 and FGGsh155 were analyzed both in absence of CB[8] and five days after the addition of the macrocyclic host in 1:1 ratio. […] (see Example 3)

[3] = test system: FGGsh155 (phi class glutathione S-transferase GSTF mutant sh155, derived by DNA shuffling, with N-terminal FGG tag, SEQ ID NO: 2); format: biochemical
Method: as §1, §2

[4] = test system: FGGsh101 (phi class glutathione S-transferase GSTF mutant sh101, derived by DNA shuffling, with N-terminal FGG tag, SEQ ID NO: 1); format: biochemical
Method: as §1, §2

[5] = test system: FGGsh101:CB[8] (FGG-tagged phi class glutathione S-transferase GSTF mutant sh101, SEQ ID NO: 1, with cucurbit[8]uril 1:1); format: biochemical
Method: as §1, §2

[6] = Thermal stability (Tm) by differential scanning fluorimetry; format: physicochemical; settings: for second distinct melting point Tm2 / increase in Tm1: after addition of CB[8]; for increase in Tm1: versus Tm0, especially 1:1 stoichiometry
Method: The thermostability of FGG-GSTFs, FGGsh101 and FGGsh155 was assessed by differential scanning fluorimetry (DSF) in the presence of the macrocyclic compound CB[8]. CB[8] was added in stoichiometry of 1:1 and 2:1 enzyme to host concentration. The reaction was performed in 50 mM KH2PO4 solution, pH 7.14, using either 15 μM enzyme and 15 μM CB[8] (1:1) or 15 μM enzyme and 7.5 μM CB[8] (2:1). A “control” reaction for each ratio was also measured, where only CB[8]'s solvent of was added to the enzyme. Differential scanning fluorimetry was performed in 20 mM KH2PO4 buffer, pH 7, with 4 μg of protein sample, according to published methods (Huynh & Partch, 2015). Thermal shift assays we carried using a Real-time PCR StepOne™ instrument (Applied Biosystems, USA) and the SYPRO Orange protein dye at a temperature range between 15° C. and 99° C. with a ramping rate of 1%. Temperature of protein denaturation midpoint (Tm) was estimated by the first derivative of the normalized fluorescence data.

[7] = Steady-state kinetic analysis of FGG-GSTFs, CDNB/GSH substrate system; format: biochemical; settings: for catalytic constant: enzyme samples with CB[8] in 1:1 stoichiometry; for kcat: free enzyme
Method: as §1
The kinetic parameters of FGGsh101 and FGGsh155 were analyzed both in absence of CB[8] and five days after the addition of the macrocyclic host in 1:1 ratio. This was determined according to the fluorescence intensity monitoring experiments, where the reduction of fluorescence emission appeared to reach a plateau after 4-5 days. (see Example 3)

[8] = Enzyme stability upon storage at 4° C. (retention of activity); format: physicochemical; settings: first twenty days
Method: Enzymatic stability was determined as the retention of enzyme activity overtime upon storage at 4° C. for the FGGsh155:CB[8] before and after immobilization, as well as the unmodified form of FGGsh155. Monitoring of the enzyme inactivation was determined using the CDNB/GSH substrate system.

[9] = CDNB/GSH substrate system, pH 6.5, 37° C., one active site per subunit

O=[N+]([O-])c1ccc(Cl)c([N+](=O)[O-])c1 [CDNB, 1-chloro-2,4-dinitrobenzene]
kcat/S0.5 CDNB ([1]; 20 mM KH2PO4, pH 7.0, 37° C.): 19 M⁻¹ s⁻¹ | nH (Hill coefficient) ([1]; CDNB variable, GSH 2.5 mM, pH 7.0, 37° C.): 1.47 ± 0.12 | kcat ([1]; CDNB/GSH substrate system, 20 mM KH2PO4, pH 7.0, 37° C.): 0.0213 ± 0.002 s⁻¹ | nH (Hill coefficient) ([2]; free enzyme, CDNB variable, five days after CB[8] addition 1:1, pH 6.5, 37° C.): 1.01 ± 0.02 | kcat ([2]; free enzyme, CDNB/GSH substrate system, five days after CB[8] addition 1:1, pH 6.5, 37° C.): 2.02 ± 0.019 s⁻¹ | S0.5 CDNB ([2]; free enzyme, GSH at fixed concentration, five days after CB[8] addition 1:1, pH 6.5, 37° C.): 0.81 ± 0.05 mM | kcat/S0.5 CDNB ([2]; free enzyme, five days after CB[8] addition 1:1, pH 6.5, 37° C.): 2489.7 M⁻¹ s⁻¹ | nH (Hill coefficient) ([3]; CDNB variable, pH 6.5, 37° C.): 1.01 ± 0.03 | kcat [3, 9]: 2.807 ± 0.0453 s⁻¹ | kcat/S0.5 CDNB ([3]; pH 6.5, 37° C.): 3645 M⁻¹ s⁻¹ | nH (Hill coefficient) ([4]; CDNB variable, pH 6.5, 37° C.): 1.17 ± 0.03 | kcat [4, 9]: 2.657 ± 0.0202 s⁻¹ | kcat/S0.5 CDNB ([4]; pH 6.5, 37° C.): 6625.2 M⁻¹ s⁻¹ | nH (Hill coefficient) ([5]; CDNB variable, five days after CB[8] addition 1:1, pH 6.5, 37° C.): 1.1 ± 0.06 | kcat ([5]; CDNB/GSH substrate system, five days after CB[8] addition 1:1, pH 6.5, 37° C.): 2.248 ± 0.0547 s⁻¹ | kcat/S0.5 CDNB ([5]; five days after CB[8] addition 1:1, pH 6.5, 37° C.): 4014.8 M⁻¹ s⁻¹

N[C@@H](CCC(=O)N[C@@H](CS)C(=O)NCC(=O)O)C(=O)O [GSH, glutathione]
kcat/Km GSH ([1]; 20 mM KH2PO4, pH 7.0, 37° C.): 16.8 M⁻¹ s⁻¹ | Km ([1]; CDNB 1 mM, 20 mM KH2PO4, pH 7.0, 37° C., read-out: Km GSH): 1260 ± 80 µM | kcat/Km GSH ([2]; pH 6.5): 1410 M⁻¹ s⁻¹ | Km ([2]; pH 6.5, read-out: Km GSH): 1430 ± 30 µM | kcat/Km GSH ([3]; pH 6.5): 1896.3 M⁻¹ s⁻¹ | Km ([3]; pH 6.5, read-out: Km GSH): 1480 ± 30 µM | kcat/Km GSH ([4]; pH 6.5): 1978 M⁻¹ s⁻¹ | Km ([4]; pH 6.5, read-out: Km GSH): 1360 ± 20 µM | kcat/Km GSH ([5]; pH 6.5): 1594 M⁻¹ s⁻¹ | Km ([5]; pH 6.5, read-out: Km GSH): 1410 ± 50 µM

B1: sh101: phi class cytosolic glutathione S-transferase mutant from DNA shuffling, without FGG tag (protein)
chain: MFGGAPVKVFGPAMSTNVARVTLCLEEVGAEYEVVNIDFNTMEHKSPEHLARNPFGQIPAFQDGDLLLWESRAISKYVLRKYKTDEVDLLREGNLKEAAMVDVWTEYDAHTYNPALSPIVYECLINPLMRGLPTNQTVVDESLEKLKKVLEVYEARLSQHKYLAGDFVSFADLNHFPYTFYFMATPHAALFDSYPHVKAWWDRLMARPAVKKIAATMVPPKA
effect of CB[8] addition on Tm of enzyme forms that weren't FGG-tagged ([6]; 1:1 and 2:1, almost ten days): did not induce the appearance of an additional Tm value

B2: FGGsh101: phi class GST mutant sh101 (SEQ ID NO: 1) with N-terminal phenylalanine-glycine-glycine tag; dimer (protein)
chain: B1 chain
modifications: N-terminal FGG tag; dimer
second distinct melting point Tm2 [6]: ≈ 85 °C | increase in Tm1 [6]: 1.5-2 °C | catalytic constant [7]: 134.9 ± 3.28 min⁻¹ | kcat [7]: 2.657 ± 0.0202 s⁻¹

B3: FGGsh155: phi class GST mutant sh155 (SEQ ID NO: 2) with N-terminal phenylalanine-glycine-glycine tag; dimer (protein)
chain: B1 chain with N36D, N40K, T41A, A51V, W69F, S75A
modifications: N-terminal FGG tag; dimer
retained activity [8]: approximately 50% | second distinct melting point Tm2 [6]: ≈ 85 °C | increase in Tm1 [6]: up to 3.5 °C | catalytic constant [7]: 121 ± 1.14 min⁻¹ | kcat [7]: 2.807 ± 0.0453 s⁻¹
